Our source for the EC50 and IC50 values is PubChem BioAssay AID179 (DTP/NCI, 2004).

The test system of the test is CEM cells HIV-1 protection, formazan growth assay. The test is described as follows: NCI AIDS Antiviral Assay. The note with it: for IC50: measured here: growth of uninfected CEM cells. In a few lines: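 Soluble formazan readout of cell growth; CEM cells ± HIV-1; 5 drug concs. ≥50% protection → retest; ≥50% again = moderately active; reproducible 100% = confirmed active.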

Usually EC50 stands for the concentration at which the effect is half-maximal. The term IC50 denotes the concentration needed to halve the response being measured. A low value points to greater potency in that assay. On to `CC(=O)Nc1ccc(S(=O)(=O)NNC(=O)NNS(=O)(=O)c2ccc(NC(C)=O)cc2)cc1`, for which the EC50 was over 7.41 µM and the IC50 is over 7.41 µM.
Turning to `CC(=O)OCc1cccc(O)c1C(=O)CCC=C(C)C`, the EC50 is over 200 µM and the IC50 stood at 148 µM.
Turning to `Cc1nc2ccccc2n1COC(Cn1ccnc1)c1ccc(Cl)cc1Cl` (stereo unspecified), the EC50 was over 200 µM and the IC50 was 135 µM.
For the compound `COc1ccc(C2=Cc3nc2c(-c2ccccc2)c2ccc([nH]2)c(-c2ccccc2)c2nc(c(-c4ccccc4)c4ccc([nH]4)c3-c3ccccc3)C=C2)cc1`, the EC50 is over 100 µM and the IC50 was over 100 µM.
On to `CC1=NNC(=O)[C@H]2[C@H]1CCC1[C@@H]2CC[C@]2(C)[C@@H](O)CC[C@@H]12` (stereo partly specified), for which the EC50 was over 200 µM and the IC50 is over 200 µM.
As for `N#CC(C#N)=C(C#N)C#N`, the EC50 is over 200 µM and the IC50 is over 200 µM.
For `CCOc1c(Cc2ccccc2)c(=O)n2c3ccccc3n3c(=O)n(C)c(=O)c1c23`, the EC50 is over 6.46 µM and the half-inhibitory concentration (IC50) is over 6.46 µM.
As to `CCCCN=C(N)N=C(N)N`, the EC50 is over 200 µM and the IC50 was determined as 93.3 µM.
`Cc1nc([N+](=O)[O-])cn1CC(=N)N`: the EC50 was over 1120 µM and the IC50 was over 1120 µM.
Take `O=C(Nc1ccccc1)c1cc2ccc(O)c(O)c2cn1`: the EC50 was over 158 µM and the half-inhibitory concentration (IC50) was determined as 8.32 µM.
`COC1(C2c3ccccc3CCN2C(=O)OC(C)(C)C)C(=O)C(c2ccccc2)=C1N(C)C` (stereo unspecified): the EC50 is over 200 µM and the IC50 turned out to be 36.3 µM.
In the case of `CCN1CC2(COC)C(O)CC(OC)C34C5CC6(O)C(O)C5C(O)(C(O)C6OC)C(C(OC)C23)C14` (stereo unspecified), the EC50 is over 200 µM and the IC50 was over 200 µM.
As for `CCC1(CCO)C(=O)NC(=Nc2ccccc2)NC1=O` (stereo unspecified), the EC50 was over 479 µM and the IC50 is over 479 µM.
As for `CC(=O)Oc1ccc2c(c1)O/C(=C\c1ccc(N(C)C)cc1)C2=O`, the EC50 is over 200 µM and the IC50 is 28.8 µM.
In the case of `O=P(N1CC1)(N1CC1)N1CC2CCC(CC2)C1`, the EC50 was over 200 µM and the IC50 amounted to 1.62 µM.
Taken in the same sequence, the figures for `C=C1C(=O)OCC2C(C(=O)O)=CC3C(C)C(C)=CC123` (stereo unspecified) were over 692 µM and 11.2 µM.
Taken in the same sequence, the figures for `COc1ccc(SSc2ccc(OC)cc2)cc1` were over 200 µM and over 200 µM.
As for `c1ccc(C2=NOC(c3ccccc3)N2C23CC4CC(CC(C4)C2)C3)cc1` (stereo unspecified), the EC50 is over 200 µM and the IC50 is over 200 µM.
Take `CS(=O)(=O)Sc1ccc(Cl)cc1`: the EC50 was over 132 µM and the IC50 is 9.33 µM.
In the case of `COc1ccc(/C=C(\C#N)c2cccnc2)cc1OC`, the EC50 is over 25.1 µM and the IC50 stood at 23.4 µM.
Turning to `Cc1cc(Cl)ccc1NC(=O)CCCC(=O)C1C/C(=N/O)CC/C1=N\O` (stereo unspecified), the EC50 was over 95.5 µM and the IC50 is over 95.5 µM.
Consider `COc1cc2c(cc1O)CN1Cc3c(ccc(OC)c3O)C2C1` (stereo unspecified), for which the EC50 was over 282 µM and the IC50 was found to be 251 µM.
Consider `O=C(CCc1ccc(O)cc1)c1c(O)cc(O)cc1OC1OC(CO)C(O)C(O)C1O` (stereo unspecified), for which the EC50 was over 200 µM and the IC50 is over 200 µM.
For the compound `Cc1cc(=O)oc2cc(NCS(=O)(=O)O)ccc12`, the EC50 was over 617 µM and the IC50 is over 617 µM.
For `CCOC(=O)N1N=C(c2ccccc2)OC2(N3CCOCC3)CCC(C(C)(C)C)CC12` (stereo unspecified), the EC50 is 30.2 µM and the IC50 turned out to be 31.6 µM.
On to `CC1(C)CC(=O)C2=C(C1)OC1=C(C(=O)CC(C)(C)C1)C2C(O)C(O)C(O)CO` (stereo unspecified), for which the EC50 is over 200 µM and the concentration for half-maximal inhibition (IC50) was over 200 µM.
With `CC1(C)OC(=O)C(C#N)=C1/C=C/c1coc2ccc(Cl)cc2c1=O`, the EC50 was over 29.5 µM and the IC50 was over 29.5 µM.
With `C[C@@H]1C(=O)c2c(O)cc(O)cc2O[C@@H]1C`, the EC50 is over 200 µM and the IC50 was over 200 µM.
